Experimental data taken from US8324176B2, “Pyrazole derivatives, medicinal composition containing the same, medicinal use thereof, and intermediate for production thereof” (Kissei Pharmaceutical Co., Ltd., priority 2002, dated 2012).

Assays:
diabetic rats = test: Assay for inhibitory effects on blood glucose level increase in rats (liquid meal tolerance test); format: in vivo, rat; conditions: test compound 1 mg/kg orally, liquid meal 17.25 kcal/kg, mean±S.E.; for Plasma glucose concentration 0.5 h: 0.5 hour after the drug administration; for Plasma glucose concentration 1 h: 1 hour after the drug administration
Method: Assay for Inhibitory Effects on Blood Glucose Level Increase in Rats
1) Preparation of Diabetic Rat Model
Male wistar rats (Japan Charles River), aged 8 weeks old, were injected nicotinamide (230 mg/kg) intraperitoneally. Fifteen minutes after injection, they were injected streptozotocin (85 mg/kg) intravenously from tail vain under anesthesia with ether. After a week, rats were fasted overnight and then glucose tolerance test (2 g/kg) was done.
2) Liquid Meal Tolerance Test
After overnight fasted, the diabetic rats were orally administered a test compound (1 mg/kg), which was dissolved in distilled water or 0.5% aqueous carboxymethylcellulose solution, in the drug-treating group, or distilled water or 0.5% aqueous carboxymethylcellulose solution alone in a control group. Immediately after the compound administration, 17.25 kcal/kg of liquid meal (No. 038, Control diet, assorted with dextrin and maltose; Oriental Yeast Co., Ltd.) was loaded orally. The blood was collected from tail artery immediately before and after administration with the time course, and treated with heparin immediately. The blood was centrifuged, and the plasma was collected to quantify the plasma glucose concentration by glucose oxidase method. The values in the Table are presented as the mean±S.E.

Male ICR mice = test: Acute toxicity test; format: in vivo; conditions: n=5, oral dose of 1 g/kg, observed for 24 hours
Method: Male ICR mice (CLEA Japan, Inc.; 32-37 g, n=5), aged 6 weeks old, were fasted for 4 hours.

human SGLT1 = target: T1, human SGLT1 (Homo sapiens, UniProt P13866); test: Assay for inhibitory effects on human SGLT1 activity (uptake of methyl-α-D-glucopyranoside in CS1-5-11D cells); format: cell-based; conditions: CHO-K1 cells stably expressing human SGLT1 (CS1-5-11D); 1 mM α-MG uptake, 37° C., 1 hour
T1 construct: expressed in transfected cells
T1 sequence (P13866 1-664): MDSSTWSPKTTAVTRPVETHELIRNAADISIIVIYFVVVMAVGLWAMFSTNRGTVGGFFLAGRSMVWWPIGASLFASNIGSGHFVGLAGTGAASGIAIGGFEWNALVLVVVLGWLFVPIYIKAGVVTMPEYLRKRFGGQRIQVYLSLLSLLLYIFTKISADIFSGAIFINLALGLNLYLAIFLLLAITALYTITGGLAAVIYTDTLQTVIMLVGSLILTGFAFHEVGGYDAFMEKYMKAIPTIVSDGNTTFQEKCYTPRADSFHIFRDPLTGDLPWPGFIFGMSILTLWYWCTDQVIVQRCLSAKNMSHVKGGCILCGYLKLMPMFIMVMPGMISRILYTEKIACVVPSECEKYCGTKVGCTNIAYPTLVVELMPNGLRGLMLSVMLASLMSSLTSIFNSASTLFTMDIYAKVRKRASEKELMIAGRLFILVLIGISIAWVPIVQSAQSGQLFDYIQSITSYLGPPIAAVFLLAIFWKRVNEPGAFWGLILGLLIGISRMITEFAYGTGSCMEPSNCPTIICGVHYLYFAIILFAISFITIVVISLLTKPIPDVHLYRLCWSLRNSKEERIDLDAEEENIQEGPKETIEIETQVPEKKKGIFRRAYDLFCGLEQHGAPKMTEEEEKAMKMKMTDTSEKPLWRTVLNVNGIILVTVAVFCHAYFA
Method: Assay for Inhibitory Effects on Human SGLT1 Activity
1) Cloning and Construction of the Vector Expressing Human SGLT1
The cDNA library was prepared for PCR amplification by reverse transcription from total RNA deprived from human small intestine (Ori gene) using oligo-dT as a primer.
2) Establishment of Cell Line Stably Expressing Human SGLT1
The expression vector of human SGLT1 was digested by Sca I into a linear DNA. The linear DNA was transfected into CHO-K1 cells by means of lipofection (Effectene Transfection Reagent: QIAGEN). Neomycin resistant cell lines were selected by culture in the medium containing G418 (1 mg/mL, LIFE TECHNOLOGIES), and then the activity against the uptake of methyl-α-D-glucopyranoside was measured by the method described below. […] CS1-5-11D cells were cultured in the presence of G418 at 200 μg/mL.
3) Measurement of the Inhibitory Activity Against the Uptake of Methyl-α-D-glucopyranoside (α-MG)
CS1-5-11D cells were seeded into a 96-well culture plate at a density of 3×10^4 cells/well and cultured for 2 days, and were used in the uptake assay. A mixture of non-labeled (Sigma) and ^14C-labeled α-MG (Amersham Pharmcia Biotec) was added to the uptake buffer (pH 7.4: containing 140 mM sodium chloride, 2 mM potassium chloride, 1 mM calcium chloride, 1 mM magnesium chloride, 10 mM 2-[4-(2-hydroxyethyl)-1-piperazinyl]ethane sulfonic acid, and 5 mM tris(hydroxymethyl)aminomethane) at the final concentration of 1 mM. A test compound was dissolved in dimethyl sulfoxide, and then appropriately diluted with distilled water. The test compound solution was added to the uptake buffer containing 1 mM α-MG, and designated as a measurement buffer. For the control group, the measurement buffer without any test compound was prepared. For measuring the basal uptake, a basal uptake measurement buffer which contains 140 mM chorine chloride instead of sodium chloride was prepared. After removing the culture medium of CS1-5-11D cells, 180 μL of the pre-treatment buffer (the basal uptake buffer without α-MG) was added to each well and incubated at 37° C. for 10 minutes. After repeating the same treatment, the pre-treatment buffer was removed. To each well was added 75 μL of the measurement buffer or the basal uptake buffer was added and incubated at 37° C. for 1 hour. After removing the measurement buffer, cells were washed twice with 180 μL per well of the washing buffer (the basal uptake buffer containing 10 mM non-labeled α-MG). The cells were solubilized by 75 μL per well of 0.2 mol/L sodium hydroxide. The cell lysates were transferred into PicoPlates (Packard), and then added 150 μL of MicroScint-40 (Packard) and mixed. Radioactivity was measured by means of micro-scintillation counter TopCount (Packard). One hundred was set to the difference between the uptake in the control group and the basal uptake, and the uptake of methyl α-D-glucopyranoside a teach drug concentration were calculated.

Structure (SMILES) | Plasma glucose concentration 0.5 h (diabetic rats) | Plasma glucose concentration 1 h (diabetic rats) | Number of death (Male ICR mice) | IC50 (human SGLT1) | Plasma glucose concentration 0 h (diabetic rats; pretreatment (0 h))
Cc1cc(OCCCNCCC(N)=O)ccc1Cc1c(O[C@@H]2O[C@H](CO)[C@@H](O)[C@H](O)[C@H]2O)n[nH]c1C(C)C [Example 52, 4-[(4-{3-[2-(Carbamoyl)ethylamino]propoxy}-2-methylphenyl)methyl]-3-(β-D-glucopyranosyloxy)-5-isopropyl-1H-pyrazole] | 163 ± 5 mg/dL | 176 ± 10 mg/dL | 0/5 | – | –
Cc1cc(OCCNC(=N)N)ccc1Cc1c(O[C@@H]2O[C@H](CO)[C@@H](O)[C@H](O)[C@H]2O)n[nH]c1C(C)C [Example 56, 3-(β-D-Glucopyranosyloxy)-4-{[4-(2-guanidinoethoxy)-2-methylphenyl]methyl}-5-isopropyl-1H-pyrazole] | 146 ± 7 mg/dL | 165 ± 17 mg/dL | – | 38 nM | –
Cc1cc(OCCCNC(CO)CO)ccc1Cc1c(O[C@@H]2O[C@H](CO)[C@@H](O)[C@H](O)[C@H]2O)n[nH]c1C(C)C [Example 59, 3-(β-D-Glucopyranosyloxy)-4-[(4-(3-[2-hydroxy-1-(hydroxymethyl)ethylamino]propoxy)-2-methylphenyl)methyl]-5-isopropyl-1H-pyrazole] | 143 ± 4 mg/dL | 154 ± 13 mg/dL | – | 71 nM | –
CC(C)c1[nH]nc(O[C@@H]2O[C@H](CO)[C@@H](O)[C@H](O)[C@H]2O)c1Cc1ccc(OCCCNCc2cccnc2)cc1 [Example 64, 3-(β-D-Glucopyranosyloxy)-5-isopropyl-4-({4-[3-(3-pyridyl-methylamino)propoxy]phenyl}methyl)-1H-pyrazole] | 141 ± 12 mg/dL | 148 ± 22 mg/dL | – | 178 nM | 116 ± 2 mg/dL
